Data as given in publication PMC8449129, “Single tracer-based protocol for broad-spectrum kinase profiling in live cells with NanoBRET” (STAR Protocols, 2021).

What was measured:
Assay in all cases: cell-based
Parameters in all cases: NanoBRET live-cell target engagement; % occupancy from displacement of tracer K10 on NanoLuc-kinase fusions, mean n=3
Details in all cases: HEK293, read-out: % inhibition
CAMK2A = CAMK2A (Homo sapiens, UniProt Q9UQM7)
Outline: (§1)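 Live-cell NanoBRET target engagement: cells expressing kinase–NanoLuc fusion with tracer treated with compound 2 h at 37 °C, 5% CO2. BRET read from donor (450 nm) and acceptor (610/630 nm) emission with 20 μM extracellular NanoLuc inhibitor; % occupancy calculated relative to tracer+DMSO and zero-BRET controls.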

ERN1 = ERN1 (Homo sapiens, UniProt O75460)
Outline: as §1

FER = FER (Homo sapiens, UniProt P16591)
Outline: as §1

IKBKE = IKBKE (Homo sapiens, UniProt Q14164)
Outline: as §1

IRAK4 = IRAK4 (Homo sapiens, UniProt Q9NWZ3)
Outline: as §1

MAP3K10 = MAP3K10 (Homo sapiens, UniProt Q02779)
Outline: as §1

MAP3K9 = MAP3K9 (Homo sapiens, UniProt P80192)
Outline: as §1

NIM1K = NIM1K (Homo sapiens, UniProt Q8IY84)
Sequence of NIM1K (Q8IY84 whole entry): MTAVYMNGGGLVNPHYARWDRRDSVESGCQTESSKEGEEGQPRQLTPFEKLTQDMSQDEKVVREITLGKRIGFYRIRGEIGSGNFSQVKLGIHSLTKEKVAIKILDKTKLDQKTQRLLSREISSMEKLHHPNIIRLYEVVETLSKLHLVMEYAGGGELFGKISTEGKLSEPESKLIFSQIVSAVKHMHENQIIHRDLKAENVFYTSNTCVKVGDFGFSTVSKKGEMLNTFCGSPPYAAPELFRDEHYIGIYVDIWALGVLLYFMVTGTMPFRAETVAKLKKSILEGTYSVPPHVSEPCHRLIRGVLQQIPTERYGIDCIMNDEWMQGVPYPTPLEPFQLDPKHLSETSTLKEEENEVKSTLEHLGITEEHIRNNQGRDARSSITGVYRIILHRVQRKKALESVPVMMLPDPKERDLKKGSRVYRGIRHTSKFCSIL
Outline: as §1

PHKG1 = PHKG1 (Homo sapiens, UniProt Q16816)
Sequence of PHKG1 (Q16816 whole entry): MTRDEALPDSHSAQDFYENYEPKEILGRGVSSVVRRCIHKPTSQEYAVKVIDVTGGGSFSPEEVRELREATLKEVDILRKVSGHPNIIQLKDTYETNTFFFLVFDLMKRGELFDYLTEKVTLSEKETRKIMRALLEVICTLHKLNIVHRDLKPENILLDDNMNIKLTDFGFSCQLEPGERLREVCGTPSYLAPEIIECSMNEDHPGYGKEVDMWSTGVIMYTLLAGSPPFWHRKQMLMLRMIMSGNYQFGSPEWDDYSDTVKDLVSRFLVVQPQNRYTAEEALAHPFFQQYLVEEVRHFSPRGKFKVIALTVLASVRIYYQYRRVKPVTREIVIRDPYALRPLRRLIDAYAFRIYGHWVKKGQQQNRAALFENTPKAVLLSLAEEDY
Outline: as §1

PLK3 = PLK3 (Homo sapiens, UniProt Q9H4B4)
Outline: as §1

PRKAA2 = PRKAA2 (Homo sapiens, UniProt P54646)
Sequence of PRKAA2 (P54646 whole entry): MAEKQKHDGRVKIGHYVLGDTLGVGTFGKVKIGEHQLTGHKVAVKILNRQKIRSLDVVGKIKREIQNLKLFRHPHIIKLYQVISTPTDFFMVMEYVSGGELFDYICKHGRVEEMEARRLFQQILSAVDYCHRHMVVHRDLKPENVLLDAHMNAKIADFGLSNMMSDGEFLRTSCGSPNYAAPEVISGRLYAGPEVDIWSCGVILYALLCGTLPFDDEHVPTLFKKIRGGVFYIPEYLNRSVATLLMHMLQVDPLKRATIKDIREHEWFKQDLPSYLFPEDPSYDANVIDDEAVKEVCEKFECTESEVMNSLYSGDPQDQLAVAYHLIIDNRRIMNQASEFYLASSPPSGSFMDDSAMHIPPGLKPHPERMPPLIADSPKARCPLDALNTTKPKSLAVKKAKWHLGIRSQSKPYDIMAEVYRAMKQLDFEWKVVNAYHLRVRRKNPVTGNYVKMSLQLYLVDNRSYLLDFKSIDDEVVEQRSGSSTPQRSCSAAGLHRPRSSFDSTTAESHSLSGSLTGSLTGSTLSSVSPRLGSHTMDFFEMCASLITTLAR
Outline: as §1

RPS6KA1 = RPS6KA1 (Homo sapiens, UniProt Q15418)
Sequence of RPS6KA1 (Q15418 whole entry): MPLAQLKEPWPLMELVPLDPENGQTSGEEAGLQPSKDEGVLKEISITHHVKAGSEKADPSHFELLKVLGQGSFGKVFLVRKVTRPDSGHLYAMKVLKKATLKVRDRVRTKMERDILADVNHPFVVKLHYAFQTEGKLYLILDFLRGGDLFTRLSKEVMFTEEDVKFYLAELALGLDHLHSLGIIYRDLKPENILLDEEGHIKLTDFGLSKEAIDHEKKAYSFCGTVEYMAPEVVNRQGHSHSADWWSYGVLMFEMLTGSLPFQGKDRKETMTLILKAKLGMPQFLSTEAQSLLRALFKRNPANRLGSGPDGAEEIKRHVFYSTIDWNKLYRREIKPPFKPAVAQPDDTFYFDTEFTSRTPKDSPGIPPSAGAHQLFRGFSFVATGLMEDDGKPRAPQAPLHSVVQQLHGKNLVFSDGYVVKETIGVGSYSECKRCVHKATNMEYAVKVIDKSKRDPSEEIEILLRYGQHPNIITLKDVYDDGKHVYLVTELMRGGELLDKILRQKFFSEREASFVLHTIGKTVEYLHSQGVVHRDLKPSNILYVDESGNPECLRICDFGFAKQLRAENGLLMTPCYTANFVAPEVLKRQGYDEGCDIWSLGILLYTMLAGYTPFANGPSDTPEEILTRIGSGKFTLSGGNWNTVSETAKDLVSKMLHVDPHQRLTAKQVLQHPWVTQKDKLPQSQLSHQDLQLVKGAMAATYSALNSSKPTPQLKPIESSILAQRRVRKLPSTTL
Outline: as §1

RPS6KA4 = RPS6KA4 (Homo sapiens, UniProt O75676)
Outline: as §1

SLK = SLK (Homo sapiens, UniProt Q9H2G2)
Sequence of SLK (Q9H2G2 whole entry): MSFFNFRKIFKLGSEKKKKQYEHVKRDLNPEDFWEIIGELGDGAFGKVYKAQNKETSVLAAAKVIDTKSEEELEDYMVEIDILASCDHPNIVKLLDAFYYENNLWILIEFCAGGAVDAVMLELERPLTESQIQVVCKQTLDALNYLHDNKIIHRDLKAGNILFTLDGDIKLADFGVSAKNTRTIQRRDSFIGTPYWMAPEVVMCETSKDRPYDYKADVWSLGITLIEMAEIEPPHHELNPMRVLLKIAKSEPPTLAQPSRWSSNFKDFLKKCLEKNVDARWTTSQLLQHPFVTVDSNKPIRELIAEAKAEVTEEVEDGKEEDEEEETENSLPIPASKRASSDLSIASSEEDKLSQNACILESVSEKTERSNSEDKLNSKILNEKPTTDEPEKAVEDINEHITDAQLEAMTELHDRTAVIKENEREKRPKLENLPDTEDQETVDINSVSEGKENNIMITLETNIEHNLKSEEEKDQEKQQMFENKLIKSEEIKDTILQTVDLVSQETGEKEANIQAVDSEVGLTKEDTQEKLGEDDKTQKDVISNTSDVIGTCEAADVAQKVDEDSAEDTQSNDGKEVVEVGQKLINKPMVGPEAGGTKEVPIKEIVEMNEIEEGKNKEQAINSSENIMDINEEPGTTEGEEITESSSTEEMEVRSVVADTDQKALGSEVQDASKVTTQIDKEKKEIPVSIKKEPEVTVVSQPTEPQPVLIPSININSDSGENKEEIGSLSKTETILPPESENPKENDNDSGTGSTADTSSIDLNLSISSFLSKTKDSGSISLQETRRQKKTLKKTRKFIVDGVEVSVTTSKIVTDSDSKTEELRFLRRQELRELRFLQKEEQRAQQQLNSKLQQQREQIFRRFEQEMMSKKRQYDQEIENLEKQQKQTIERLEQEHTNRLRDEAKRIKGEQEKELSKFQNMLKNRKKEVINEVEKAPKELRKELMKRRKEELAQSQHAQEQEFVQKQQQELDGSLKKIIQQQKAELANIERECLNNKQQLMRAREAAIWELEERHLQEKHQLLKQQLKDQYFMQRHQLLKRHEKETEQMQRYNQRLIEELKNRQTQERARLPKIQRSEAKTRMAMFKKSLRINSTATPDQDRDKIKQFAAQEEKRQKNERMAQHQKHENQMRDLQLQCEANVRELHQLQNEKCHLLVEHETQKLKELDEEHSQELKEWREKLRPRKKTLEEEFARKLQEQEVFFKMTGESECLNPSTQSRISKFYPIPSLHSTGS
Outline: as §1

SRMS = SRMS (Homo sapiens, UniProt Q9H3Y6)
Outline: as §1

STK32B = STK32B (Homo sapiens, UniProt Q9NY57)
Sequence of STK32B (Q9NY57 whole entry): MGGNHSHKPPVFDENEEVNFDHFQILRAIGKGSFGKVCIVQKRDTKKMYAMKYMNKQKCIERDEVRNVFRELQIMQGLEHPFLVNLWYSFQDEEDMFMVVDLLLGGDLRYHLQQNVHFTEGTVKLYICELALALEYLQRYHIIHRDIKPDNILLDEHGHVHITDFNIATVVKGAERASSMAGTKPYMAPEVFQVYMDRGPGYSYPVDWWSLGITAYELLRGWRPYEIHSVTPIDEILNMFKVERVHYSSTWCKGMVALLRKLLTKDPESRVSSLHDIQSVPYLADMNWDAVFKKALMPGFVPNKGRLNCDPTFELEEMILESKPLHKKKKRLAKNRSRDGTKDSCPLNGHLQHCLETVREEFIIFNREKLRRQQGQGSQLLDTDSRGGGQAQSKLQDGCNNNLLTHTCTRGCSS
Outline: as §1

TXK = TXK (Homo sapiens, UniProt P42681)
Outline: as §1

ULK1 = ULK1 (Homo sapiens, UniProt O75385)
Sequence of ULK1 (O75385 whole entry): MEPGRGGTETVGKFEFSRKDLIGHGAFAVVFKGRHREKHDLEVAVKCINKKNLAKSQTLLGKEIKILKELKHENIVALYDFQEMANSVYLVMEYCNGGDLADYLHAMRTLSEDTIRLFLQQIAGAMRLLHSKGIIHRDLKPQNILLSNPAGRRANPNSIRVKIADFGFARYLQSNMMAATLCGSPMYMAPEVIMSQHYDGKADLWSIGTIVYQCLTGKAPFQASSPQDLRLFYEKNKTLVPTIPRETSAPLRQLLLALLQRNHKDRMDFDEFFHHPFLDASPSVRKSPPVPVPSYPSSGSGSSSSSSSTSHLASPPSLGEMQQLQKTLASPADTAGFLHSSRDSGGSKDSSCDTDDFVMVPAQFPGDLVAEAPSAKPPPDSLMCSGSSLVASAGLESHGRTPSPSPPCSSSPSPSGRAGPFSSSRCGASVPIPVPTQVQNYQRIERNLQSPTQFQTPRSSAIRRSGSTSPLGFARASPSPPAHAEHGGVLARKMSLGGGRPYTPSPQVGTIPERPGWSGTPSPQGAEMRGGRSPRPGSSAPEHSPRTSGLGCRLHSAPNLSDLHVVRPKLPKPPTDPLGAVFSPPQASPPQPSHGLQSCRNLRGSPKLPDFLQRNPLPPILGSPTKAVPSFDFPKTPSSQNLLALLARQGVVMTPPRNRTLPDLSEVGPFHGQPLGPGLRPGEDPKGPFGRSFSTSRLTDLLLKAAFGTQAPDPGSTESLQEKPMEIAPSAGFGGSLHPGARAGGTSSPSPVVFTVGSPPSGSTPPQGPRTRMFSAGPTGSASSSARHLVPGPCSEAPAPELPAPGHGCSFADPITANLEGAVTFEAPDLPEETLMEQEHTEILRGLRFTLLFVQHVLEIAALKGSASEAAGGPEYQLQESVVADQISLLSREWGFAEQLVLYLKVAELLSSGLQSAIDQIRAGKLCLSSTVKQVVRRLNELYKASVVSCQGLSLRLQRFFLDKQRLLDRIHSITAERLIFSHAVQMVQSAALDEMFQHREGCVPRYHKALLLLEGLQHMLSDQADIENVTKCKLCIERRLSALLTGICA
Outline: as §1

`C[C@@H](Oc1cc(-c2cnn(C3CCNCC3)c2)cnc1N)c1c(Cl)ccc(F)c1Cl` [crizotinib] gave an inhibition at 1 µM (CAMK2A) of 3%, an inhibition at 1 µM (ERN1) of -3% and an inhibition at 1 µM (FER) of 16%. The inhibition at 1 µM (IKBKE) was 21%, the inhibition at 1 µM (IRAK4) was 6% and the inhibition at 1 µM (MAP3K10) was -1%. The inhibition at 1 µM (MAP3K9) was -1%, the inhibition at 1 µM (NIM1K) was -3% and the inhibition at 1 µM (PHKG1) was -3%. It also gave an inhibition at 1 µM (PLK3) of 4%, an inhibition at 1 µM (PRKAA2) of -6% and an inhibition at 1 µM (RPS6KA1) of -6%. It also gave an inhibition at 1 µM (RPS6KA4) of -11%, an inhibition at 1 µM (SLK) of 36% and an inhibition at 1 µM (SRMS) of 0%. The inhibition at 1 µM (STK32B) was -1%, the inhibition at 1 µM (TXK) was 18% and the inhibition at 1 µM (ULK1) was -1%.
